Laboratory results taken from patent publication US11608335B2, “Somatostatin modulators and uses thereof” (CRINETICS PHARMACEUTICALS, INC., priority 2018, dated 2023).
pEC50: −log10 of the molar value. Read-outs that look alike come from different tables or passages of the source.

Assays:
[1] = target: T1, human somatostatin receptor subtype 3 (Homo sapiens, UniProt P32745); assay: cAMP assay for SST3R (inhibition of cAMP via human SST3 receptor); assay type: cell-based; conditions: from inhibition of cAMP via human SST5 receptor and human SST3 receptor
T1 construct: expressed in transfected cells
T1 sequence (P32745 whole entry): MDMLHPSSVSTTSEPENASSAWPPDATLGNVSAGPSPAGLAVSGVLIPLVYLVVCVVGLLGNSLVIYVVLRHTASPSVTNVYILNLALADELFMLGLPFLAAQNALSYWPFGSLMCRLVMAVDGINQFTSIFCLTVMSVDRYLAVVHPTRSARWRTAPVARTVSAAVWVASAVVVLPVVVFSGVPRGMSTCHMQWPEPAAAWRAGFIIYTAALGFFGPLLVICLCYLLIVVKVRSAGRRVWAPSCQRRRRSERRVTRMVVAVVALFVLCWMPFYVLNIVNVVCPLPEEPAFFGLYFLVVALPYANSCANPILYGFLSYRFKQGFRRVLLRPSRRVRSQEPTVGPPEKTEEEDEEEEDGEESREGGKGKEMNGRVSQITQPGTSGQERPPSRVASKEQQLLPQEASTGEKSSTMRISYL
Excerpt: cAMP Assay Protocol for SST3R:

[2] = target: T2, human somatostatin receptor subtype 2 (Homo sapiens, UniProt P30874); assay: cAMP assay for SST2R (inhibition of cAMP via human SST2 receptor); assay type: cell-based; conditions: Table B, read-out: SST2 potency
T2 construct: expressed in transfected cells
T2 sequence (P30874 whole entry): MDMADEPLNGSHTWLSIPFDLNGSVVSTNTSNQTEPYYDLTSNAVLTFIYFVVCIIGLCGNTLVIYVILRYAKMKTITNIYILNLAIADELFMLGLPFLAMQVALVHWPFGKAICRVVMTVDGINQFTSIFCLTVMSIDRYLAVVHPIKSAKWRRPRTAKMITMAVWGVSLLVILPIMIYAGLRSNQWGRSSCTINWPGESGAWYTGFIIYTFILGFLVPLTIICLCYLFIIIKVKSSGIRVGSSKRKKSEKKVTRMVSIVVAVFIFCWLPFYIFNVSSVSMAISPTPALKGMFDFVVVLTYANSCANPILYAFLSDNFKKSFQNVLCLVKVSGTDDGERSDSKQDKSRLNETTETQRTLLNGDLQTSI
Excerpt: cAMP Assay Protocol for SST2R:

[3] = Liver microsomal stability assay; assay type: in vitro ADME; conditions: both sexes, human, pooled human liver microsomes; read-out: HLM Stability t½
Experimental: Example B-2: Liver Microsomal Stability Assay Protocol
The in vitro stabilities of compounds of interest were determined for various species using pooled male and female human, pooled male Sprague-Dawley rat, pooled male Cynomolgus monkey, and pooled male Beagle dog liver microsomes at microsomal protein concentrations of 0.5 mg/mL. Incubations were carried out in a potassium phosphate buffer (50 mM). The NADPH-generating system was composed of NADP+ (1 mM), magnesium chloride (3 mM), EDTA (1 mM), glucose-6-phosphate (5 mM) and glucose-6-phosphate dehydrogenase (1 Unit/mL) for all experiments. Compounds of interest in DMSO/acetonitrile were added to achieve a final incubation concentration of 1 μM (final DMSO content was 0.1% v/v and final acetonitrile content was 0.9%). The final incubation volume was 400 μL. Incubations were conducted at 37° C. for 0, 5, 10, 20, 40 and 60 minutes in a shaking water bath and terminated by removing 50 μL of incubation mixture and adding to 100 μL of ice cold acetonitrile containing internal standard. Following precipitation by centrifugation at 3500 rpm and 4° C. for 30 minutes, compounds of interest and internal standard were analyzed in the resultant supernatant using a multiple reaction monitoring (MRM) LC-MS/MS method. MS conditions were optimized for each analyte.
(§1) Table E illustrates representative human liver microsomal stability and time dependent CYP2D6 inhibition (TDI) of exemplary compounds.

[4] = target: human somatostatin receptor subtype 5 (Homo sapiens, UniProt P35346); assay: cAMP assay for SST5R (inhibition of cAMP via human SST5 receptor); conditions: for Fold selectivity for SST5 vs SST2: SST5 over SST2, class symbols
Sequence of human somatostatin receptor subtype 5 (P35346 whole entry): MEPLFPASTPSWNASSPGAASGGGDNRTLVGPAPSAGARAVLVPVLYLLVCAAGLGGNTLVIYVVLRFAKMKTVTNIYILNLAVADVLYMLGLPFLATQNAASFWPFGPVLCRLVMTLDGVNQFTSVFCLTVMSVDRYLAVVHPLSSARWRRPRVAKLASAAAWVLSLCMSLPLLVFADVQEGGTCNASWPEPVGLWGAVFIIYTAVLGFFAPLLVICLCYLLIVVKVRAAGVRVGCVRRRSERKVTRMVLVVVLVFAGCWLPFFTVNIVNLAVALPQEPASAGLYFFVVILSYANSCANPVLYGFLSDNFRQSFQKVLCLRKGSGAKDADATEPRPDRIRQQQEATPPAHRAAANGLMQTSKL

[5] = target: T3, human somatostatin receptor subtype 4 (Homo sapiens, UniProt P31391); assay: cAMP assay for hSST4R (inhibition of cAMP via human SST4 receptor); assay type: cell-based; conditions: from inhibition of cAMP via human SST5 receptor and human SST4 receptor
T3 construct: expressed in transfected cells
T3 sequence (P31391 whole entry): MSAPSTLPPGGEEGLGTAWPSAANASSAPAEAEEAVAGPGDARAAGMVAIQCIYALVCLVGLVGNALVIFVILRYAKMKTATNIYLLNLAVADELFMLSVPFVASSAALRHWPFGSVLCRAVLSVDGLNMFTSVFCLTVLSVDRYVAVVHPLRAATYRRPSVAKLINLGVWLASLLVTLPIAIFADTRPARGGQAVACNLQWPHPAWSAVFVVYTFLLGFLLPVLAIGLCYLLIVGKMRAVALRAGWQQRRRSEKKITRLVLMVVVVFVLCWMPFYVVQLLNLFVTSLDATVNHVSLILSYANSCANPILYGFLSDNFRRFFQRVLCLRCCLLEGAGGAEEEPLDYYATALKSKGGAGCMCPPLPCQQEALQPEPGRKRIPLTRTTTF
Excerpt: cAMP Assay Protocol hSST4R:

[6] = target: T4, Cytochrome P450 (CYP) 2D6 enzyme (Homo sapiens, UniProt P10635); assay: Cytochrome P450 (CYP) 2D6 enzyme time dependent inhibition (TDI) assay; assay type: in vitro ADME; conditions: human liver microsomes
T4 construct: using pooled male and female human liver microsomes; from tissue; host or cells: pooled male and female human liver microsomes
T4 sequence (P10635 whole entry): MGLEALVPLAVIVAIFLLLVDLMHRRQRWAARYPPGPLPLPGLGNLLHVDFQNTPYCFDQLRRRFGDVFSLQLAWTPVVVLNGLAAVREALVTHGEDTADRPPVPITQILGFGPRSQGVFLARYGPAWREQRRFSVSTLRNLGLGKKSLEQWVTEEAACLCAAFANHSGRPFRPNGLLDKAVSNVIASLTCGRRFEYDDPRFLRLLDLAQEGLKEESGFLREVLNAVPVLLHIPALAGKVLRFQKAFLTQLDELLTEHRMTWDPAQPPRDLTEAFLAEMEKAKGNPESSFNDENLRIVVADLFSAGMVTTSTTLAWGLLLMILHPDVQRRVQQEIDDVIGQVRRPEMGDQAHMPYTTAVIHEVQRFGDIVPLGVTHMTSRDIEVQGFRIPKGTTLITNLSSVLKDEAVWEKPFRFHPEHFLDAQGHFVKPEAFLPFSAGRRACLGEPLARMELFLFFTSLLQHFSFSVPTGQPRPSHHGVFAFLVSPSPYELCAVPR
Experimental: Example B-3: Cytochrome P450 (CYP) 2D6 Enzyme Time Dependent Inhibition (TDI) Assay Protocol
The NADPH-generating system mix was composed of potassium phosphate buffer pH 7.4 (50 mM), NADP+ (1 mM), magnesium chloride (3 mM), EDTA (1 mM), glucose-6-phosphate (5 mM), glucose-6-phosphate dehydrogenase (1 Unit/mL), human liver microsomes (0.1 mg/mL) and water. Compounds of interest in DMSO serial diluted to six different concentrations (final DMSO content of 0.1% v/v) were added to the NADPH-generating system. CYP 2D6 substrate Dextromethorphan was added at a final incubation concentration of 5 μM. The final incubation volume was 200 μL. Incubations were conducted at 37° C. for 10 minutes in a shaking water bath to evaluate the drug candidates as […] of CYP 2D6. In a separate test plate, drug candidates were pre-incubated at 37° C. for 30 minutes in a shaking water bath in NADPH-generating system mix in the absence of Dextromethorphan substrate to allow for the formation of metabolites. This plate was removed from the water bath and placed on ice for 5 minutes. Dextromethorphan substrate was then added and the plate was incubated at 37° C. for 10 minutes in a shaking water bath to determine if any metabolites formed during the 30 minute pre-incubation inhibit the CYP 2D6 enzyme. All incubations were terminated by removing 50 μL of incubation mixture and adding to 200 μL of ice cold acetonitrile containing internal standard. Following precipitation by centrifugation at 3500 rpm and 4° C. for 30 minutes, the resultant supernatant were analyzed by using a multiple reaction monitoring (MRM) LC-MS/MS method detecting for internal standard and the CYP 2D6 enzyme mediated Dextromethorphan O-demethylation metabolite Dextrorphan and IC50 values were determined.
as §1

[7] = read-out: SST5 potency, inhibition of cAMP via human SST5 receptor, Table B
[8] = t = 0 min pre-incubation, read-out: CYP2D6 inhibition, IC50 (μM) t = 0 min
[9] = t = 30 min pre-incubation, read-out: CYP2D6 inhibition, IC50 (μM) t = 30 min

| SMILES | Fold selectivity for SST5 vs SST3 [1] | pEC50 [2] | half-life at 1 μM [3] | pEC50 [4] | Fold selectivity for SST5 vs SST2 [4] | pEC50 [4, 7] | Fold selectivity for SST5 vs SST4 [5] | IC50 [6, 8] | IC50 [6, 9] |
| --- | --- | --- | --- | --- | --- | --- | --- | --- | --- |
| Cc1cccc2nc(-c3cncc(-c4cc(F)cc(C(F)(F)F)c4)c3N3CC[C@H](N)C3)[nH]c12 [Compound 2-185, (3S)-1-{3-[3-fluoro-5-(trifluoromethyl)phenyl]-5-(4-methyl-1H-1,3-benzodiazol-2-yl)pyridin-4-yl}pyrrolidin-3-amine] | 6.1 fold | 6.00 to 7.00 | 1.28 h | > 8.00 | ++ (++=100 to 499) | > 8.00 | 1.2 fold | 9.5 µM | 2.3 µM |
| C[C@]1(N)CCN(c2c(-c3ccnc(C#N)c3)cncc2-c2nc3c(F)cccc3[nH]2)C1 [Compound 2-162, 4-[(3S)-3-amino-3-methylpyrrolidin-1-yl]-5-(4-fluoro-1H-1,3-benzodiazol-2-yl)-[3,4′-bipyridine]-2′-carbonitrile] | 517 fold | 6.00 to 7.00 | > 11.6 h | > 8.00 | +++ (+++=≥500) | > 8.00 | 109 fold | > 10 µM | > 10 µM |
| Cc1cccc2nc(-c3cncc(-c4cc(F)cc(F)c4)c3N3CC[C@H](N)C3)[nH]c12 [Compound 2-201, (3S)-1-[3-(3,5-difluorophenyl)-5-(4-methyl-1H-1,3-benzodiazol-2-yl)pyridin-4-yl]pyrrolidin-3-amine] | 5.1 fold | 7.00 to 8.00 | 2.88 h | > 8.00 | + (+=10 to 99) | > 8.00 | 1.0 fold | 4.7 µM | 1.8 µM |
| Cc1cc(F)cc(-c2cncc(-c3nc4cccc(C)c4[nH]3)c2N2CC[C@H](N)C2)c1 [Compound 2-182, (3S)-1-[3-(3-fluoro-5-methylphenyl)-5-(4-methyl-1H-1,3-benzodiazol-2-yl)pyridin-4-yl]pyrrolidin-3-amine] | 6.3 fold | 6.00 to 7.00 | 0.883 h | > 8.00 | ++ (++=100 to 499) | > 8.00 | 0.94 fold | 7.6 µM | 6.5 µM |
| COc1cc(F)cc(-c2cncc(-c3nc4c(C)cccc4[nH]3)c2N2CC[C@H](N)C2)c1 [Compound 2-184, (3S)-1-[3-(3-fluoro-5-methoxyphenyl)-5-(4-methyl-1H-1,3-benzodiazol-2-yl)pyridin-4-yl]pyrrolidin-3-amine] | 7.0 fold | 6.00 to 7.00 | 0.967 h | > 8.00 | ++ (++=100 to 499) | > 8.00 | 1.4 fold | 4.2 µM | 2.5 µM |
| Cc1cccc2nc(-c3cncc(-c4cc(F)cc(Cl)c4)c3N3CC[C@H](N)C3)[nH]c12 [Compound 2-183, (3S)-1-[3-(3-chloro-5-fluorophenyl)-5-(4-methyl-1H-1,3-benzodiazol-2-yl)pyridin-4-yl]pyrrolidin-3-amine] | 6.7 fold | 6.00 to 7.00 | 1.28 h | > 8.00 | ++ (++=100 to 499) | > 8.00 | 4.0 fold | 6.4 µM | 3.5 µM |
